The source of these data is ChEMBL document CHEMBL2424548, “Substrate-based peptidomimetic inhibitors of the Murray Valley encephalitis virus NS2B/NS3 serine protease: a P1-P4 SAR study” (Eur J Med Chem, 2013).

Non-standard residues stand in square brackets, D forms with d. Residues, ends and D or L forms follow the SMILES beside them. *: point of attachment. hArg = N=C(N)NCCCC[C@H](N)C(=O)O; Agmatine = N=C(N)NCCCCN*; Nle = CCCC[C@H](N)C(=O)O

The target of one series is Prothrombin (Homo sapiens, UniProt P00734). Put plainly: Inhibition of human thrombin after 1 hr by fluorescence assay.
In general, IC50 refers to the concentration at which inhibition is half-maximal. The low end stands for inhibition by little substance, the high end for a need for much substance. For `N=C(N)N1CCC(CNC(=O)[C@H](CCCCN)NC(=O)[C@H](CCCCN)NC(=O)Cc2cccc(-c3ccccc3)c2)CC1`, the half-inhibitory concentration (IC50) is > 100 µM.

Tested on in the next series: not listed separately
Put plainly: Chemical stability of the compound at 100 uM after 2 hrs in presence of MVEV NS2B/NS3 protease. The series is classed as physicochemical.
Consider `N=C(N)N1CCC(CNC(=O)[C@H](CCCCN)NC(=O)[C@H](CCCCN)NC(=O)Cc2cccc(-c3ccccc3)c2)CC1`, for which the Stability result is listed as “Stable”.

Tested on in another series: not listed separately
Put plainly: Inhibition of Murray Valley encephalitis virus NS2B/NS3 protease using Pyr-RTKR-AMC as substrate after 1 hr by fluorescence assay.
`CC(=O)N[C@@H](CCCCN)C(=O)N[C@@H](CCCCN)C(=O)NCCCCCNC(=N)N`: the midpoint of inhibition, the IC50, lay at 75.7 µM. Still for that read-out and setting: under `CC(=O)N[C@@H](CCCCNC(=N)N)C(=O)N[C@@H](CCCCN)C(=O)NCCCCNC(=N)N` (Ac-[hArg]-Lys-Agmatine) stands 31.4 µM. The same measure, in the same setting: under `N=C(N)NCCCCNC(=O)[C@H](CCCCN)NC(=O)[C@H](CCCCN)NC(=O)c1cccc2ccccc12` stands 28.3 µM; under `CC(C)(C)C(=O)N[C@@H](CCCCN)C(=O)N[C@@H](CCCCN)C(=O)NCCCCNC(=N)N`, > 100 µM; under `CC(=O)N[C@@H](CCCCN)C(=O)N[C@@H](CCCCN)C(=O)NCC#CCNC(=N)N`, 12.7 µM. Still for that read-out and setting: in the case of `N=C(N)NCCCCNC(=O)[C@H](CCCCN)NC(=O)[C@H](CCCCN)NC(=O)Cc1cccc(-c2ccccc2)c1` it was 9.1 µM; in that of `CCCCNC(=O)[C@H](CCCCN)NC(=O)[C@H](CCCCN)NC(C)=O`, > 100 µM; in that of `CC(C)C(=O)N[C@@H](CCCCN)C(=O)N[C@@H](CCCCN)C(=O)NCCCCNC(=N)N`, 81.7 µM. As to `Cc1ccc(CC(=O)N[C@@H](CCCCN)C(=O)N[C@@H](CCCCN)C(=O)NCCCCNC(=N)N)cc1`, 15.2 µM corresponded to half-maximal inhibition (IC50).

`CC(=O)N[C@@H](CCCCN)C(=O)N[C@@H](CCCCN)C(=O)NCCCCNC(=N)N` showed an IC50 of 16.8 µM.

`CC(=O)N[C@@H](CCCCN)C(=O)N[C@@H](CCCCN)C(=O)NCCCCCN`: the IC50 is > 100 µM. `CC(=O)N[C@@H](CCCCN)C(=O)N[C@@H](CCCCN)C(=O)N[C@H]1CC[C@@H](NC(=N)N)CC1`: the IC50 is > 100 µM. On the same count and under the same terms, in the case of `Cc1cccc(CC(=O)N[C@@H](CCCCN)C(=O)N[C@@H](CCCCN)C(=O)NCCCCNC(=N)N)c1` it was 15.7 µM; in that of `N=C(N)NCCCCNC(=O)[C@H](CCCCN)NC(=O)[C@H](CCCCN)NC(=O)Cc1ccc(Cl)cc1`, 14.1 µM; in that of `CCCC[C@H](NC(C)=O)C(=O)N[C@@H](CCCCN)C(=O)NCCCCNC(=N)N` (Ac-[Nle]-Lys-Agmatine), 45.2 µM. Same read-out and setting: in the case of `CC(=O)N[C@@H](CCCCN)C(=O)N[C@@H](CCCCN)C(=O)NCCCNC(=N)N` it was > 100 µM; in that of `N=C(N)NCCCCNC(=O)[C@H](CCCCN)NC(=O)[C@H](CCCCN)NC(=O)Cc1cccc(Cl)c1`, 53.9 µM; in that of `N=C(N)NCCCCNC(=O)[C@H](CCCCN)NC(=O)[C@H](CCCCN)NC(=O)Cc1ccc(-c2ccccc2)cc1`, 18.4 µM. Still for that read-out and setting: under `CC(=O)N[C@@H](CCCCN)C(=O)N[C@@H](CCCCN)C(=O)NC/C=C/CNC(=N)N` stands 58.3 µM. With `CCCC[C@H](NC(=O)[C@H](CCCCN)NC(C)=O)C(=O)NCCCCNC(=N)N` (Ac-Lys-[Nle]-Agmatine), the IC50 was > 100 µM. Still for that read-out and setting: in the case of `CC(=O)N[C@@H](CCCCN)C(=O)N[C@@H](CCCCN)C(=O)NCC1CCN(C(=N)N)CC1` it was 9.2 µM; in that of `CCC(=O)N[C@@H](CCCCN)C(=O)N[C@@H](CCCCN)C(=O)NCCCCNC(=N)N`, 49.1 µM. On the same count and under the same terms, under `N=C(N)NCCCCNC(=O)[C@H](CCCCN)NC(=O)[C@H](CCCCN)NC(=O)CCc1ccccc1` stands 30.7 µM; under `N=C(N)NCCCCNC(=O)[C@H](CCCCN)NC(=O)[C@H](CCCCN)NC(=O)Cc1ccccc1Cl`, 54 µM; under `CC(=O)N[C@@H](CCCCN)C(=O)N[C@@H](CCCCN)C(=O)NCCCCNC(N)=O`, > 100 µM. For `N=C(N)NCCCCNC(=O)[C@H](CCCCN)NC(=O)[C@H](CCCCN)NC(=O)c1ccccc1`, half-maximal inhibition (IC50) was put at 32.3 µM. Same read-out and setting: under `N=C(N)NCCCCNC(=O)[C@H](CCCCN)NC(=O)[C@H](CCCCN)NC(=O)c1ccc2ccccc2c1` stands 24 µM. As to `N=C(N)NCCCCNC(=O)[C@H](CCCCN)NC(=O)[C@@H](N)CCCCN`, the IC50 was > 100 µM. In turn, `N=C(N)N1CCC(CNC(=O)[C@H](CCCCN)NC(=O)[C@H](CCCCN)NC(=O)Cc2cccc(-c3ccccc3)c2)CC1` displayed an IC50 of 4.9 µM. The molecule `CC(C)CC(=O)N[C@@H](CCCCN)C(=O)N[C@@H](CCCCN)C(=O)NCCCCNC(=N)N` registered an IC50 of 69.3 µM. With `CC(=O)N[C@@H](CCCCN)C(=O)N[C@@H](CCCCN)C(=O)NCCCCCCN`, the IC50 is > 100 µM. On the same count and under the same terms, under `CC(=O)N[C@@H](CCCCN)C(=O)N[C@@H](CCCCN)C(=O)NC/C=C\CNC(=N)N` stands > 100 µM. Regarding `Cc1ccccc1CC(=O)N[C@@H](CCCCN)C(=O)N[C@@H](CCCCN)C(=O)NCCCCNC(=N)N`, the IC50 was 60.5 µM. The same measure, in the same setting: under `CC(=O)N[C@@H](CCCCN)C(=O)N[C@@H](CCCCNC(=N)N)C(=O)NCCCCNC(=N)N` (Ac-Lys-[hArg]-Agmatine) stands 79.2 µM; under `N=C(N)NCCCCNC(=O)[C@H](CCCCN)NC(=O)[C@H](CCCCN)NC(=O)Cc1ccccc1`, 16.3 µM; under `CC(=O)N[C@@H](CCCCN)C(=O)N[C@@H](CCCCN)C(=O)NCCCCN`, > 100 µM. Regarding `CC(=O)N[C@@H](CCCCN)C(=O)N[C@@H](CCCCN)C(=O)NN`, the IC50 was > 100 µM. Molecule `CCCC(=O)N[C@@H](CCCCN)C(=O)N[C@@H](CCCCN)C(=O)NCCCCNC(=N)N` had an IC50 of 50.9 µM.

Tested on in the next series: not listed separately
Put plainly: Competitive inhibition of Murray Valley encephalitis virus NS2B/NS3 protease using Pyr-RTKR-AMC as substrate after 1 hr by Lineweaver-Burk plot analysis.
By Ki is commonly meant a dissociation constant, usually derived from enzyme kinetics or from competition with a known ligand. Low values mean higher affinity, high ones lower affinity. With `N=C(N)N1CCC(CNC(=O)[C@H](CCCCN)NC(=O)[C@H](CCCCN)NC(=O)Cc2cccc(-c3ccccc3)c2)CC1`, the Ki was determined as 2.5 µM.
